From EP1157985A1 (G.D. SEARLE & CO., priority 1996, dated 1997) come the findings set out here.

SMILES strings stand for the structures. pIC50: −log10 of the molar value. Structures can show the parent of a compound that is named as a salt. Where two headings read alike, the source gives them in different places.

In experiment [1] the target is T1, Human vitronectin receptor (αvβ3) (Homo sapiens, UniProt P05106+P06756).
T1 construct: Human vitronectin receptor (αvβ3) was purified from human placenta; from tissue; host or cells: human placenta
Description: Vitronectin adhesion assay (solid phase receptor assay, competition with biotinylated vitronectin). In kind it is binding. The procedure:
VITRONECTIN ADHESION ASSAY
Human vitronectin receptor (αvβ3) was purified from human placenta as previously described [Pytela et al., Methods in Enzymology, 144:475-489 (1987)]. Human vitronectin was purified from fresh frozen plasma as previously described [Yatohgo et al., Cell Structure and Function, 13:281-292 (1988)]. Biotinylated human vitronectin was prepared by coupling NHS-biotin from Pierce Chemical Company (Rockford, IL) to purified vitronectin as previously described [Charo et al., J. Biol. Chem., 266(3):1415-1421 (1991)]. Assay buffer, OPD substrate tablets, and RIA grade BSA were obtained from Sigma (St. Louis, MO). Anti-biotin antibody was obtained from Calbiochem (La Jolla, CA). Linbro microtiter plates were obtained from Flow Labs (McLean, VA). ADP reagent was obtained from Sigma (St. Louis, MO).
This assay was essentially the same as previously reported [Niiya et al., Blood, 70:475-483 (1987)]. The purified human vitronectin receptor (αvβ3) was diluted from stock solutions to 1.0 µg/mL in Tris-buffered saline containing 1.0 mM Ca^++, Mg^++, and Mn^++, pH 7.4 (TBS^+++). The diluted receptor was immediately transferred to Linbro microtiter plates at 100 µL/well (100 ng receptor/well). The plates were sealed and incubated overnight at 4°C to allow the receptor to bind to the wells. All remaining steps were at room temperature. The assay plates were emptied and 200 µL of 1% RIA grade BSA in TBS^+++ (TBS^+++/BSA) were added to block exposed plastic surfaces. Following a 2 hour incubation, the assay plates were washed with TBS^+++ using a 96 well plate washer. Logarithmic serial dilution of the test compound and controls were made starting at a stock concentration of 2 mM and using 2 nM biotinylated vitronectin in TBS^+++/BSA as the diluent. This premixing of labeled ligand with test (or control) ligand, and subsequent transfer of 50 µL aliquots to the assay plate was carried out with a CETUS Propette robot; the final concentration of the labeled ligand was 1 nM and the highest concentration of test compound was 1.0 x 10^-4 M. The competition occurred for two hours after which all wells were washed with a plate washer as before. Affinity purified horseradish peroxidase labeled goat anti-biotin antibody was diluted 1:3000 in TBS^+++/BSA and 125 µL were added to each well. After 30 minutes, the plates were washed and incubated with OPD/H2O2 substrate in 100 mM/L Citrate buffer, pH 5.0. The plate was read with a microtiter plate reader at a wavelength of 450 nm and when the maximum-binding control wells reached an absorbance of about 1.0, the final A450 were recorded for analysis. The data were analyzed using a macro written for use with the EXCEL™ spreadsheet program. The mean, standard deviation, and %CV were determined for duplicate concentrations. The mean A450 values were normalized to the mean of four maximum-binding controls (no competitor added)(B-MAX). The normalized values were subjected to a four parameter curve fit algorithm [Rodbard et al., Int.

Experiment [2] deals with T2, Human fibrinogen receptor (αIIbβ3) (Homo sapiens, UniProt P05106+P08514).
T2 construct: Human fibrinogen receptor (αIIbβ3) was purified from outdated platelets; from tissue; host or cells: outdated (human) platelets
Put plainly: Purified IIb/IIIa receptor assay (solid phase receptor assay, competition with biotinylated vitronectin). It is filed as binding. The note with it: purified receptor from outdated platelets; 1 nM biotinylated vitronectin; highest concentration tested 1.0 x 10^-4 M. The source says:
PURIFIED IIb/IIIa RECEPTOR ASSAY
Human fibrinogen receptor (αIIbβ3) was purified from outdated platelets. (Pytela, R., Pierschbacher, M.D., Argraves, S., Suzuki, S., and Rouslahti, E. "Arginine-Glycine-Aspartic acid adhesion receptors", Methods in Enzymology 144(1987):475-489.) Human vitronectin was purified from fresh frozen plasma as described in Yatohgo, T., Izumi, M., Kashiwagi, H., and Hayashi, M., "Novel purification of vitronectin from human plasma by heparin affinity chromatography," Cell Structure and Function 13(1988):281-292. Biotinylated human vitronectin was prepared by coupling NHS-biotin from Pierce Chemical Company (Rockford, IL) to purified vitronectin as previously described. (Charo, I.F., Nannizzi, L., Phillips, D.R., Hsu, M.A., Scarborough, R.M., "Inhibition of fibrinogen binding to GP IIb/IIIa by a GP IIIa peptide", J. Biol. Chem. 266(3)(1991): 1415-1421.) Assay buffer, OPD substrate tablets, and RIA grade BSA were obtained from Sigma (St. Louis, MO). Anti-biotin antibody was obtained from Calbiochem (La Jolla, CA). Linbro microtiter plates were obtained from Flow Labs (McLean, VA). ADP reagent was obtained from Sigma (St. Louis, MO).
This assay is essentially the same reported in Niiya, K., Hodson, E., Bader, R., Byers-Ward, V. Koziol, J.A., Plow, E.F. and Ruggeri, Z.M., "Increased surface expression of the membrane glycoprotein IIb/IIIa complex induced by platelet activation: Relationships to the binding of fibrinogen and platelet aggregation", Blood 70(1987):475-483. The purified human fibrinogen receptor (αIIbβ3) was diluted from stock solutions to 1.0 µg/mL in Tris-buffered saline containing 1.0 mM Ca^++, Mg^++, and Mn^++, pH 7.4 (TBS^+++). The diluted receptor was immediately transferred to Linbro microtiter plates at 100 µL/well (100 ng receptor/well). The plates were sealed and incubated overnight at 4°C to allow the receptor to bind to the wells. All remaining steps were at room temperature. The assay plates were emptied and 200 µL of 1% RIA grade BSA in TBS^+++ (TBS^+++/BSA) were added to block exposed plastic surfaces. Following a 2 hour incubation, the assay plates were washed with TBS^+++ using a 96 well plate washer. Logarithmic serial dilution of the test compound and controls were made starting at a stock concentration of 2 mM and using 2 nM biotinylated vitronectin in TBS^+++/BSA as the diluent. This premixing of labeled ligand with test (or control) ligand, and subsequent transfer of 50 µL aliquots to the assay plate was carried out with a CETUS Propette robot; the final concentration of the labeled ligand was 1 nM and the highest concentration of test compound was 1.0 x 10^-4 M. The competition occurred for two hours after which all wells were washed with a plate washer as before. Affinity purified horseradish peroxidase labeled goat anti-biotin antibody was diluted 1:3000 in TBS^+++/BSA and 125 µL were added to each well. After 30 minutes, the plates were washed and incubated with […] substrate in 100 mM/L citrate buffer, pH 5.0. The plate was read with a microtiter plate reader at a wavelength of 450 nm and when the maximum-binding control wells reached an absorbance of about 1.0, the final A450 were recorded for analysis. The data were analyzed using a macro written for use with the EXCEL™ spreadsheet program. The mean, standard deviation, and %CV were determined for duplicate concentrations. The mean A450 values were normalized to the mean of four maximum-binding controls (no competitor added)(B-MAX). The normalized values were subjected to a four parameter curve fit algorithm, [Robard et al., Int. […]

Where [3] appears, read: purified receptor from human placenta; 1 nM biotinylated vitronectin; highest concentration tested 1.0 x 10^-4 M; read-out: AvB3 IC50.

As to `O=C(O)CCc1ccc(NC(=O)c2cccc(NC3=NCCCN3)c2)cc1C(=O)O` [Example 102, 2-carboxy-4-[[[3-[(1,4,5,6-tetrahydropyrimidin-2-yl)-amino]phenyl]carbonyl]amino]benzenepropanoic acid, trifluoroacetate salt], the pIC50 in experiment [1] (setting [3]) was 8.22; in experiment [2], 5.33.

With `CC(=O)NC(Cc1ccc(NC(=O)Nc2cccc(NC(=N)N)c2)cc1)C(=O)O` (centres unmarked) [Example 68, N-acetyl-4-[[[[3-[(aminoiminomethyl)amino]phenyl]amino]carbonyl]amino]phenylalanine, trifluoroacetate salt], the pIC50 in experiment [1] (setting [3]) was 6.11; in experiment [2], 6.99.

Turning to `N=C(N)Nc1cccc(C(=O)NCCc2ccc(CCC(=O)O)cc2)c1` [Example 59, 4-[2-[[[3-[(aminoiminomethyl)amino]phenyl]carbonyl]amino]ethyl]benzenepropanoic acid, trifluoroacetate salt], the figures for the pIC50 in experiment [1] (setting [3]) and in experiment [2] were 5.35 and 6.32, respectively.

`CC(C)CC(=O)N[C@@H](Cc1ccc(NC(=O)c2cc(NC3=NCCCN3)cc(C(F)(F)F)c2)cc1)C(=O)O` [Example 107, N-(3-methyl-1-oxobutyl)-4-[[[3-[(1,4,5,6-tetrahydro-pyrimidin-2-yl)amino]-5-(trifluoromethyl)phenyl]-carbonyl]amino]phenylalanine, trifluoroacetate salt]: the pIC50 in experiment [1] (setting [3]) is 9.30; in experiment [2], 5.80.

On to `N=C(N)Nc1cccc(C(=O)Nc2ccc(CC(C(=O)O)C(=O)O)cc2)c1` [Example 120, [[4-[[[3-[(aminoiminomethyl)amino]phenyl]carbonyl]-amino]phenyl]methyl]-1,3-propanoic acid, trifluoroacetic salt], for which the pIC50 in experiment [1] (setting [3]) was 7.85; in experiment [2], 6.42.

For the compound `O=C(O)CCc1ccc(NC(=O)c2cccc(NC(=O)NCc3ccccc3)c2)cc1` [Example 28, 4-[[[3-[[[(phenylmethyl)amino]carbonyl]amino]phenyl]carbonyl]amino]benzenepropanoic acid], the pIC50 in experiment [1] (setting [3]) is 6.26; in experiment [2] it was 5.00.

`CC(C)OC(=O)NC(Cc1ccc(NC(=O)c2cccc(N=C(N)N)c2)cc1)C(=O)O` (centres unmarked) [Example 50, trifluoroacetate salt]: the pIC50 in experiment [1] (setting [3]) was 9.10; in experiment [2] it was 7.66.

As for `CCCCS(=O)(=O)NC(Cc1ccc(NC(=O)c2cccc(NC(=N)N)c2)cc1)C(=O)OCC` (centres unmarked) [Example 41, trifluoroacetate salt], the pIC50 in experiment [1] (read-out: AvB3 IC50; purified receptor from human placenta; 1 nM biotinylated vitronectin; highest concentration tested 1.0 x 10^-4 M) was 5.97; in experiment [2], 5.24.

For `N#CN=C(NCc1ccccc1)Nc1cccc(C(=O)Nc2ccc(CCC(=O)O)cc2)c1` [Example 79, 4-[[[3-[[(cyanoimino)[(phenylmethyl)-amino]methyl]amino]phenyl]carbonyl]amino]-benzenepropanoic acid], the pIC50 in experiment [1] (setting [3]) was 5.64; in experiment [2] it was 4.99.

Regarding `N=C(N)Nc1cccc(C(=O)Nc2ccc(CC(NC(=O)N3CCCCC3)C(=O)O)cc2)c1` (centres unmarked) [Example 126, 4-[[[3-[(aminoiminomethyl)amino]phenyl]carbonyl]-amino]-N-[(1-pipridinyl)carbonyl]phenyl-alanine, trifluoroacetate salt], the pIC50 in experiment [1] (setting [3]) was 8.70; in experiment [2] it was 7.44.

For the compound `CCOC(=O)COc1ccc(NC(=O)c2cccc(NC(=N)N)c2)cc1` [Example 89, ethyl [4-[[[3-[(aminoiminomethyl)amino]phenyl]carbonyl]amino]phenoxy]acetate, trifluoroacetate salt], the figures for the pIC50 in experiment [1] (setting [3]) and in experiment [2] were 5.68 and 4.80, respectively.

`CC(Oc1ccc(NC(=O)c2cccc(NC(=N)N)c2)cc1)C(=O)O` (centres unmarked) [Example 85, 2-[4-[[[3-[(aminoiminomethyl)amino]phenyl]. carbonyl]amino]phenoxy]propanoic acid, trifluoroacetate salt]: the pIC50 in experiment [1] (setting [3]) is 6.08; in experiment [2] it was 4.90.

Take `COC(=O)C(C)Oc1ccc(NC(=O)c2cccc(NC(=N)N)c2)cc1` (centres unmarked) [Example 85C]: the pIC50 in experiment [1] (setting [3]) was 4.40; in experiment [2], 4.18.

The term pIC50 denotes −log10 of the IC50, conventionally taken in molar units.
